Source: US12606557B2, “Substituted indoles with inhibitory activity” (UNIVERSITY OF PITTSBURGH—OF THE COMMONWEALTH SYSTEM OF …, priority 2020, dated 2026)
Where “and” joins values, the source holds several entries; their conditions need not be identical. Identical values can stand only once. Like-named read-outs stand apart in the source and are kept apart here. Marks after values point to notes of the source that are not given here.

Legend:
[1] = Plasma pharmacokinetics after a single intraperitoneal dose; assay type: in vivo, male CD1 mice; settings: for plasma concentrations quantifiable up to: LLOQ 10.38 ng/mL; for concentration at 0.08 hr / concentration at 0.25 hr / concentration at 0.5 hr / concentration at 1 hr / concentration at 2 hr / concentration at 4 hr / concentration at 8 hr / concentration at 24 hr: intraperitoneal
Experimental: The objective of this example was to investigate the plasma pharmacokinetics of UPHH-000171 following a single intraperitoneal dose administration to male CD1 mice at 10 and 50 mg/kg. Eighteen male mice were divided in to two groups with nine animals in each group,
Animals in Group 1 and Group 2 were administered with solution formulation of UPHH-000171 in 5% NMP, 25% Solutol HS-15 and 70% normal saline intraperitoneally at 10 and 50 mg/kg dose, respectively.
The blood samples were collected from set of three mice at each time point in labeled micro centrifuge tube containing K2EDTA solution as anticoagulant at Pre-dose, 0.08, 0.25, 0.5, 1, 2, 4, 8 and 24 hr. Plasma samples were separated by centrifugation of whole blood and stored below −70±10° C. until bioanalysis. All samples were processed for analysis by protein precipitation using acetonitrile and analyzed with fit-for-purpose LC-MS/MS method (LLOQ=10.38 ng/mL). Pharmacokinetic parameters were calculated using the non-compartmental analysis tool of Phoenix WinNonlin® (Version 7.0). Mean pharmacokinetic parameters are summarized below: […]

[2] = biological target: T1, HDAC8 (Homo sapiens, UniProt Q9BY41); test: Cellular thermal shift assay (CETSA) for HDAC8 binding; settings: compared to a control with no compound, FIG. 1
T1 construct: CETSA uses cell lysates heated to different temperatures and quantifies the target protein in the soluble fraction by western blot; endogenous in cells; host or cells: cell lysate
T1 sequence (Q9BY41 1-377): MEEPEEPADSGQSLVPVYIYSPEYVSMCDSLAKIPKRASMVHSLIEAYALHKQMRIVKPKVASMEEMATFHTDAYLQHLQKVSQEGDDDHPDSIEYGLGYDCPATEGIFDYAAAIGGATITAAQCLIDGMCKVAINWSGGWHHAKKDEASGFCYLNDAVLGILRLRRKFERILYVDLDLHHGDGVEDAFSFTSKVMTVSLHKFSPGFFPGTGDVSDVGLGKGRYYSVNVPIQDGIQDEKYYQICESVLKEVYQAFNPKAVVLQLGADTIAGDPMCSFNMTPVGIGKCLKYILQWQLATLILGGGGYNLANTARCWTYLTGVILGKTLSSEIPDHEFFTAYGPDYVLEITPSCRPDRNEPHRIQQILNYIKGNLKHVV
Excerpt: Cellular thermal shift assay (CETSA) was developed from the same principles of ligand induced thermal stability assays (TSA) of proteins. During TSA, purified proteins are heated in the absence or presence of ligand and then quickly cooled. Proteins that are bound to ligand are more thermally stable than their unbound counterparts, and these “thermal shifts” can be detected by various methods. CETSA uses cell lysates heated to different temperatures and quantifies the target protein in the soluble fraction by western blot. CETSA is a direct measurement of […] through the measurement of the biophysical properties that stabilized the protein-ligand complex under thermal denaturation. The UPHH-00171 compound was tested in the CETSA assay, specifically for HDAC8 binding.

[3] = tested on: gentamicin-induced AKI in zebrafish larvae; test: Gentamicin-induced AKI in zebrafish larvae (zfAKI assay), Kaplan-Meier survival; assay type: in vivo; settings: two different doses, compared to the untreated control
Excerpt: The gentamicin-induced AKI in zebrafish larvae (zfAKI assay), recapitulates injury and proliferation-based repair in mammalian AKI, but allows for higher throughput analysis of compound efficacy in AKI than mouse models. As fish are soaked in compounds, this assay is not subject to drug delivery and absorption problems that occur in early drug discovery in mice. This assay was used as a primary screening assay with the throughput being increased.

[4] = male, CD1, mouse, 10 mg/kg IP, plasma
[5] = male, CD1, mouse, 50 mg/kg IP, plasma

Structure (SMILES): COc1ccc(Cn2ccc3ccc(C(=O)NS(C)(=O)=O)cc32)cc1 [UPHH-000171, 1-(4-methoxybenzyl)-N-(methylsulfonyl)-1H-indole-6-carboxamide]
- Plasma Concentration, individual animal ([1]; 10 mg/kg IP, 0.08 hr): 9871.25 ng/mL and 2877.79 ng/mL and 7508.44 ng/mL
- Plasma Concentration, individual animal ([1]; 10 mg/kg IP, 0.25 hr): 28861.97 ng/mL and 28672.95 ng/mL
- Plasma Concentration, individual animal ([1]; 10 mg/kg IP, 0.5 hr): 41628.22 ng/mL and 36468.73 ng/mL
- Plasma Concentration, individual animal ([1]; 10 mg/kg IP, 1 hr): 49594.52 ng/mL and 19264.72 ng/mL and 34912.30 ng/mL
- Plasma Concentration, individual animal ([1]; 10 mg/kg IP, 2 hr): 46853.15 ng/mL and 43408.40 ng/mL
- Plasma Concentration, individual animal ([1]; 10 mg/kg IP, 4 hr): 47512.89 ng/mL and 73497.85 ng/mL and 31815.34 ng/mL
- Plasma Concentration, individual animal ([1]; 10 mg/kg IP, 8 hr): 20138.85 ng/mL and 29805.54 ng/mL
- Plasma Concentration, individual animal ([1]; 10 mg/kg IP, 24 hr, animal 7 excluded as an outlier): 2930.59^e ng/mL and 131.01 ng/mL and 68.44 ng/mL
- plasma concentrations quantifiable up to ([1]; 10 mg/kg IP): up to 24 hr
- Plasma Concentration, individual animal ([1]; 50 mg/kg IP, 0.08 hr): 59305.08 ng/mL and 90638.28 ng/mL
- Plasma Concentration, individual animal ([1]; 50 mg/kg IP, 0.25 hr): 31701.46 ng/mL and 171000.65 ng/mL and 182938.71 ng/mL
- Plasma Concentration, individual animal ([1]; 50 mg/kg IP, 0.5 hr): 137922.52 ng/mL and 96505.03 ng/mL and 47522.98 ng/mL
- Plasma Concentration, individual animal ([1]; 50 mg/kg IP, 1 hr): 218799.23 ng/mL and 236020.35 ng/mL
- Plasma Concentration, individual animal ([1]; 50 mg/kg IP, 2 hr): 93162.33 ng/mL and 195094.83 ng/mL and 235858.27 ng/mL
- Plasma Concentration, individual animal ([1]; 50 mg/kg IP, 4 hr): 106201.99 ng/mL and 115510.21 ng/mL
- Plasma Concentration, individual animal ([1]; 50 mg/kg IP, 8 hr): 93195.14 ng/mL and 75070.05 ng/mL
- Plasma Concentration, individual animal ([1]; 50 mg/kg IP, 24 hr): 1407.79 ng/mL and 391.49 ng/mL and 1081.42 ng/mL
- plasma concentrations quantifiable up to ([1]; 50 mg/kg IP): up to 24 hr
- dose related increase in plasma exposure (AUClast) ([1]; from 10 mg/kg to 50 mg/kg IP): 3 fold
- concentration at 0.08 hr ([1]; male, CD1, mouse, plasma, 10 mg/kg, 10 mg/kg IP, 0.08 hr, read-out: Plasma Concentration, Mean): 6.75 µg/mL
- concentration at 0.25 hr ([1]; male, CD1, mouse, plasma, 10 mg/kg, 10 mg/kg IP, 0.25 hr, read-out: Plasma Concentration, Mean): 30200 ng/mL
- concentration at 0.25 hr ([1]; male, CD1, mouse, plasma, 10 mg/kg, 10 mg/kg IP, 0.25 hr, read-out: Plasma Concentration, individual animal): 33000 ng/mL
- concentration at 0.5 hr ([1]; male, CD1, mouse, plasma, 10 mg/kg, 10 mg/kg IP, 0.5 hr, read-out: Plasma Concentration, Mean): 41200 ng/mL
- concentration at 0.5 hr ([1]; male, CD1, mouse, plasma, 10 mg/kg, 10 mg/kg IP, 0.5 hr, read-out: Plasma Concentration, individual animal): 45600 ng/mL
- concentration at 1 hr ([1]; male, CD1, mouse, plasma, 10 mg/kg, 10 mg/kg IP, 1 hr, read-out: Plasma Concentration, Mean): 34.6 µg/mL
- concentration at 2 hr ([1]; male, CD1, mouse, plasma, 10 mg/kg, 10 mg/kg IP, 2 hr, read-out: Plasma Concentration, Mean): 47.9 µg/mL
- concentration at 2 hr ([1]; male, CD1, mouse, plasma, 10 mg/kg, 10 mg/kg IP, 2 hr, read-out: Plasma Concentration, individual animal): 53.6 µg/mL
- concentration at 4 hr ([1]; male, CD1, mouse, plasma, 10 mg/kg, 10 mg/kg IP, 4 hr, read-out: Plasma Concentration, Mean): 50.9 µg/mL
- concentration at 8 hr ([1]; male, CD1, mouse, plasma, 10 mg/kg, 10 mg/kg IP, 8 hr, read-out: Plasma Concentration, Mean): 28.4 µg/mL
- concentration at 8 hr ([1]; male, CD1, mouse, plasma, 10 mg/kg, 10 mg/kg IP, 8 hr, read-out: Plasma Concentration, individual animal): 35.1 µg/mL
- concentration at 24 hr ([1]; male, CD1, mouse, plasma, 10 mg/kg, 10 mg/kg IP, 24 hr, average of two values): 99.7 ng/mL
- concentration at 0.08 hr ([1]; male, CD1, mouse, plasma, 50 mg/kg, 50 mg/kg IP, 0.08 hr, read-out: Plasma Concentration, Mean): 79.6 µg/mL
- concentration at 0.08 hr ([1]; male, CD1, mouse, plasma, 50 mg/kg, 50 mg/kg IP, 0.08 hr, read-out: Plasma Concentration, individual animal): 89 µg/mL
- concentration at 0.25 hr ([1]; male, CD1, mouse, plasma, 50 mg/kg, 50 mg/kg IP, 0.25 hr, read-out: Plasma Concentration, Mean): 129000 ng/mL
- concentration at 0.5 hr ([1]; male, CD1, mouse, plasma, 50 mg/kg, 50 mg/kg IP, 0.5 hr, read-out: Plasma Concentration, Mean): 94000 ng/mL
- concentration at 1 hr ([1]; male, CD1, mouse, plasma, 50 mg/kg, 50 mg/kg IP, 1 hr, read-out: Plasma Concentration, Mean): 228 µg/mL
- concentration at 1 hr ([1]; male, CD1, mouse, plasma, 50 mg/kg, 50 mg/kg IP, 1 hr, read-out: Plasma Concentration, individual animal): 229 µg/mL
- concentration at 2 hr ([1]; male, CD1, mouse, plasma, 50 mg/kg, 50 mg/kg IP, 2 hr, read-out: Plasma Concentration, Mean): 175 µg/mL
- concentration at 4 hr ([1]; male, CD1, mouse, plasma, 50 mg/kg, 50 mg/kg IP, 4 hr, read-out: Plasma Concentration, Mean): 116 µg/mL
- concentration at 4 hr ([1]; male, CD1, mouse, plasma, 50 mg/kg, 50 mg/kg IP, 4 hr, read-out: Plasma Concentration, individual animal): 128 µg/mL
- concentration at 8 hr ([1]; male, CD1, mouse, plasma, 50 mg/kg, 50 mg/kg IP, 8 hr, read-out: Plasma Concentration, Mean): 90.1 µg/mL
- concentration at 8 hr ([1]; male, CD1, mouse, plasma, 50 mg/kg, 50 mg/kg IP, 8 hr, read-out: Plasma Concentration, individual animal): 102 µg/mL
- concentration at 24 hr ([1]; male, CD1, mouse, plasma, 50 mg/kg, 50 mg/kg IP, 24 hr): 960 ng/mL
- AUC(0-t) [1, 4]: 558 µg·h/mL
- Cmax [1, 4]: 50.9 µg/mL
- Tmax [1, 4]: 4 h
- AUC(0-inf) [1, 5]: 1770 µg·h/mL
- AUC(0-t) [1, 5]: 1760 µg·h/mL
- Cmax [1, 5]: 228 µg/mL
- Tmax [1, 5]: 1 h
- thermal stability of HDAC8 in CETSA ([2]; listed as UPHH171): increased thermal stability
- thermal stability of HDAC8 in CETSA ([2]; listed as UPHH-00171): increase in thermal stability
- survival in zfAKI assay [3]: increase survival
